{"source": "patent US20220031596A1", "about": "“ANTI-AGING AGENT AND ANTI-AGING METHOD” (priority 2018, published 2022)", "assay_type_in_all_cases": "in vivo, human", "key": {"[1]": {"tested_on": "growth hormone concentration in the plasma", "assay": "Evaluation of growth hormone secretion promoting effect (plasma growth hormone, 24-week oral ingestion)", "details": "for growth hormone concentration in the plasma, 0 weeks (before ingestion) / growth hormone concentration in the plasma, 24 weeks (after ingestion) / growth hormone concentration in the plasma, Change rate (24 weeks - 0 weeks): High Dose Group (200 mg/daily, oral), mean±SD; for growth hormone concentration in the plasma, 0 weeks (before ingestion): baseline", "protocol": "In order to confirm a change in the growth hormone quantity before and after ingestion of the nicotinamide mononucleotide, a test was conducted on healthy males and females aged 50 to 70 years.\nAs a sample of Working Example 2, a capsule formulation containing the nicotinamide mononucleotide and starch (200 mg of the nicotinamide mononucleotide in 4 capsules) (manufactured by SHINKOWA PHARMACEUTICAL Co., Ltd.) was used.\n(§1) Each group consisting of five healthy males and females aged 50 to 70 years in an unbiased age group ingested the above capsule formulation once a day by 4 capsules for 24 weeks (total 10 subjects, 200 mg/daily ingestion). In order to conduct appropriate evaluations, those who had been regularly using medical products for chronic diseases, those who had been consuming healthy foods that may affect clinical research, and those who were currently participating in other clinical researches or clinical trials or had participated in other clinical researches or clinical trials within the last three months were excluded from the subject for the evaluation. The capsule formulations were ingested at 10 am (between meals and fasting state) together with water or lukewarm water (oral administration).\nMeasurement of the growth hormone quantity in the plasma was conducted by requesting the measurement to an external public organization according to a usual method. FIGS. 4a to 4c indicate transitions of the growth hormone concentration (ng/ml) in the plasma for 24 weeks. FIG. 4a represents the transitions of the whole subjects; FIG. 4b represents the transitions of the male subjects; FIG. 4c represents the transitions of the female subjects. Further, FIGS. 5a to 5c indicate change rates (%) of the blood growth hormone concentration up to 24 weeks when the nicotinamide mononucleotide was orally administered to the subjects for 24 weeks. FIG. 5a represents the change rates of the whole subjects; FIG. 5b represents the change rates of the male subjects; FIG. 5c represents the change rates of the female subjects. Further, Table 2 indicates the numerical values of the growth hormone concentration (ng/ml) in the plasma before the ingestion of the nicotinamide mononucleotide (0 weeks) and after the ingestion of the nicotinamide mononucleotide (24 weeks). Note that the numerical values represent mean values±standard deviation."}, "[2]": {"tested_on": "ghrelin concentration in the plasma", "assay": "Evaluation of ghrelin secretion promoting effect (plasma ghrelin, 24-week oral ingestion)", "details": "for ghrelin concentration in the plasma, 0 weeks (before ingestion) / ghrelin concentration in the plasma, 24 weeks (after ingestion) / ghrelin concentration in the plasma, Change rate (24 weeks - 0 weeks): High Dose Group (200 mg/daily, oral), mean±SD; for ghrelin concentration in the plasma, 0 weeks (before ingestion): baseline", "protocol": "In order to confirm a change in the ghrelin quantity before and after ingestion of the nicotinamide mononucleotide, a test was conducted on healthy males and females aged 50 to 70 years.\nAs a sample of Working Example 3, a capsule formulation containing the nicotinamide mononucleotide and starch (200 mg of the nicotinamide mononucleotide in 4 capsules) (manufactured by SHINKOWA PHARMACEUTICAL Co., Ltd.) was used.\nas §1\nMeasurement of the ghrelin quantity in the plasma was conducted by requesting the measurement to an external public organization according to a usual method. FIGS. 6a to 6c indicate transitions of the ghrelin concentration (pg/ml) in the plasma for 24 weeks. FIG. 6a represents the transitions of the whole subjects; FIG. 6b represents the transitions of the male subjects; FIG. 6c represents the transitions of the female subjects. Further, FIGS. 7a to 7c indicate change rates (%) of the blood ghrelin concentration up to 24 weeks when the nicotinamide mononucleotide was orally administered to the subjects for 24 weeks. FIG. 7a represents the change rates of the whole subjects; FIG. 7b represents the change rates of the male subjects; FIG. 7c represents the change rates of the female subjects. Further, Table 3 indicates the numerical values of the ghrelin concentration (pg/ml) in the plasma before the ingestion of the nicotinamide mononucleotide (0 weeks) and after the ingestion of the nicotinamide mononucleotide (24 weeks). Note that the numerical values represent mean values±standard deviation."}, "[3]": {"tested_on": "melatonin concentration in the plasma", "assay": "Evaluation of melatonin secretion promoting effect (plasma melatonin, 24-week oral ingestion)", "details": "for melatonin concentration in the plasma, 0 weeks (before ingestion): baseline; for melatonin concentration in the plasma, 0 weeks (before ingestion) / melatonin concentration in the plasma, 24 weeks (after ingestion) / melatonin concentration in the plasma, Change rate (24 weeks - 0 weeks): mean±SD", "protocol": "In order to confirm a change in the melatonin quantity before and after ingestion of the nicotinamide mononucleotide, a test was conducted on healthy males and females aged 50 to 70 years.\nAs a sample of Working Example 1, a capsule formulation containing the nicotinamide mononucleotide and starch (100 mg (low dose) and 200 mg (high dose) of the nicotinamide mononucleotide in 4 capsules) (manufactured by SHINKOWA PHARMACEUTICAL Co., Ltd.) was used.\nas §1, with “the above low dose capsule formulation” for “the above capsule formulation”, “10 subjects, a low dose group: 100 mg/daily ingestion). On the other hand, each group consisting of five healthy males and females aged 50 to 70 years in the unbiased age group ingested the above high dose capsule formulation once a day by 4 capsules for 24 weeks (total 10 subjects, a high dose group: 200 mg/daily” for “10 subjects, 200 mg/daily”, “or clinical trials, or had” for “or clinical trials or had”\nMeasurement of the melatonin quantity in plasma was conducted by requesting the measurement to an external public organization according to a usual method. FIGS. 2a to 2c indicates transitions of the melatonin concentration (pg/ml) in the plasma for 24 weeks. FIG. 2a represents the transitions of the whole subjects; FIG. 2b represents the transitions of the male subjects; FIG. 2c represents the transitions of the female subjects. FIGS. 3a to 3c indicates change rates (%) of the blood melatonin concentration up to 24 weeks when the nicotinamide mononucleotide was orally administered to the subjects for 24 weeks. FIG. 3a represents the change rates of the whole subjects; FIG. 3b represents the change rates of the male subjects; FIG. 3c represents the change rates of the female subjects. Further, Table 1 indicates the numerical values of the melatonin concentration (pg/ml) in the plasma before the ingestion of the nicotinamide mononucleotide (0 weeks) and after the ingestion of the nicotinamide mononucleotide (24 weeks). In addition, the numerical values represent mean values±standard deviation."}, "[4]": {"details": "Female, High Dose Group (200 mg/daily, oral)"}, "[5]": {"details": "Female, Low Dose Group (100 mg/daily, oral)"}, "[6]": {"details": "Male, High Dose Group (200 mg/daily, oral)"}, "[7]": {"details": "Male, Low Dose Group (100 mg/daily, oral)"}, "[8]": {"details": "Whole Subjects, High Dose Group (200 mg/daily, oral)"}, "[9]": {"details": "Whole Subjects, Low Dose Group (100 mg/daily, oral)"}}, "data": [{"smiles": "NC(=O)c1ccc[n+]([C@@H]2O[C@H](COP(=O)([O-])O)[C@@H](O)[C@H]2O)c1", "note": "[nicotinamide mononucleotide]", "values": [{"measurement": "growth hormone concentration in the plasma, 0 weeks (before ingestion)", "setting": "[1]; Female", "result": "0.91 ± 0.28", "unit": "ng/mL"}, {"measurement": "growth hormone concentration in the plasma, 24 weeks (after ingestion)", "setting": "[1]; Female", "result": "2.14 ± 2.22", "unit": "ng/mL"}, {"measurement": "growth hormone concentration in the plasma, Change rate (24 weeks - 0 weeks)", "setting": "[1]; Female", "result": "1.24 ± 2.31", "unit": "ng/mL"}, {"measurement": "growth hormone concentration in the plasma, 0 weeks (before ingestion)", "setting": "[1]; Male", "result": "0.21 ± 0.12", "unit": "ng/mL"}, {"measurement": "growth hormone concentration in the plasma, 24 weeks (after ingestion)", "setting": "[1]; Male", "result": "2.41 ± 3.44", "unit": "ng/mL"}, {"measurement": "growth hormone concentration in the plasma, Change rate (24 weeks - 0 weeks)", "setting": "[1]; Male", "result": "2.20 ± 3.34", "unit": "ng/mL"}, {"measurement": "growth hormone concentration in the plasma, 0 weeks (before ingestion)", "setting": "[1]; Whole Subjects", "result": "0.56 ± 0.42", "unit": "ng/mL"}, {"measurement": "growth hormone concentration in the plasma, 24 weeks (after ingestion)", "setting": "[1]; Whole Subjects", "result": "2.28 ± 2.73", "unit": "ng/mL"}, {"measurement": "growth hormone concentration in the plasma, Change rate (24 weeks - 0 weeks)", "setting": "[1]; Whole Subjects", "result": "1.72 ± 2.76", "unit": "ng/mL"}, {"measurement": "growth hormone concentrations in the plasma, effect of ingestion (in words)", "setting": "[1]; oral, 200 mg/daily, 24 weeks, FIGS. 4a-4c, 5a-5c", "result": "increased"}, {"measurement": "ghrelin concentration in the plasma, 0 weeks (before ingestion)", "setting": "[2]; Female", "result": "260 ± 111", "unit": "pg/mL"}, {"measurement": "ghrelin concentration in the plasma, 24 weeks (after ingestion)", "setting": "[2]; Female", "result": "990 ± 834", "unit": "pg/mL"}, {"measurement": "ghrelin concentration in the plasma, Change rate (24 weeks - 0 weeks)", "setting": "[2]; Female", "result": "730 ± 847", "unit": "pg/mL"}, {"measurement": "ghrelin concentration in the plasma, 0 weeks (before ingestion)", "setting": "[2]; Male", "result": "111 ± 91", "unit": "pg/mL"}, {"measurement": "ghrelin concentration in the plasma, 24 weeks (after ingestion)", "setting": "[2]; Male", "result": "152 ± 131", "unit": "pg/mL"}, {"measurement": "ghrelin concentration in the plasma, Change rate (24 weeks - 0 weeks)", "setting": "[2]; Male", "result": "40 ± 50", "unit": "pg/mL"}, {"measurement": "ghrelin concentration in the plasma, 0 weeks (before ingestion)", "setting": "[2]; Whole Subjects", "result": "186 ± 124", "unit": "pg/mL"}, {"measurement": "ghrelin concentration in the plasma, 24 weeks (after ingestion)", "setting": "[2]; Whole Subjects", "result": "571 ± 716", "unit": "pg/mL"}, {"measurement": "ghrelin concentration in the plasma, Change rate (24 weeks - 0 weeks)", "setting": "[2]; Whole Subjects", "result": "385 ± 672", "unit": "pg/mL"}, {"measurement": "ghrelin concentrations in the plasma, effect of ingestion (in words)", "setting": "[2]; oral, 200 mg/daily, 24 weeks, FIGS. 6a-6c, 7a-7c", "result": "increased"}, {"measurement": "melatonin concentration in the plasma, 0 weeks (before ingestion)", "setting": "[3]; [4]", "result": "5.77 ± 3.00", "unit": "pg/mL"}, {"measurement": "melatonin concentration in the plasma, 24 weeks (after ingestion)", "setting": "[3]; [4]", "result": "11.81 ± 8.17", "unit": "pg/mL"}, {"measurement": "melatonin concentration in the plasma, Change rate (24 weeks - 0 weeks)", "setting": "[3]; [4]", "result": "6.03 ± 5.90", "unit": "pg/mL"}, {"measurement": "melatonin concentration in the plasma, 0 weeks (before ingestion)", "setting": "[3]; [5]", "result": "7.15 ± 4.51", "unit": "pg/mL"}, {"measurement": "melatonin concentration in the plasma, 24 weeks (after ingestion)", "setting": "[3]; [5]", "result": "9.37 ± 4.85", "unit": "pg/mL"}, {"measurement": "melatonin concentration in the plasma, Change rate (24 weeks - 0 weeks)", "setting": "[3]; [5]", "result": "2.21 ± 3.19", "unit": "pg/mL"}, {"measurement": "melatonin concentration in the plasma, 0 weeks (before ingestion)", "setting": "[3]; [6]", "result": "3.82 ± 1.41", "unit": "pg/mL"}, {"measurement": "melatonin concentration in the plasma, 24 weeks (after ingestion)", "setting": "[3]; [6]", "result": "6.68 ± 4.04", "unit": "pg/mL"}, {"measurement": "melatonin concentration in the plasma, Change rate (24 weeks - 0 weeks)", "setting": "[3]; [6]", "result": "2.86 ± 3.10", "unit": "pg/mL"}, {"measurement": "melatonin concentration in the plasma, 0 weeks (before ingestion)", "setting": "[3]; [7]", "result": "2.76 ± 1.71", "unit": "pg/mL"}, {"measurement": "melatonin concentration in the plasma, 24 weeks (after ingestion)", "setting": "[3]; [7]", "result": "6.20 ± 3.60", "unit": "pg/mL"}, {"measurement": "melatonin concentration in the plasma, Change rate (24 weeks - 0 weeks)", "setting": "[3]; [7]", "result": "3.44 ± 3.57", "unit": "pg/mL"}, {"measurement": "melatonin concentration in the plasma, 0 weeks (before ingestion)", "setting": "[3]; [8]", "result": "4.80 ± 2.44", "unit": "pg/mL"}, {"measurement": "melatonin concentration in the plasma, Change rate (24 weeks - 0 weeks)", "setting": "[3]; [8]", "result": "4.45 ± 4.75", "unit": "pg/mL"}, {"measurement": "melatonin concentration in the plasma, 0 weeks (before ingestion)", "setting": "[3]; [9]", "result": "4.96 ± 3.96", "unit": "pg/mL"}, {"measurement": "melatonin concentration in the plasma, 24 weeks (after ingestion)", "setting": "[3]; [9]", "result": "7.78 ± 4.36", "unit": "pg/mL"}, {"measurement": "melatonin concentration in the plasma, Change rate (24 weeks - 0 weeks)", "setting": "[3]; [9]", "result": "2.82 ± 3.26", "unit": "pg/mL"}, {"measurement": "melatonin concentrations in the plasma compared to before ingestion, statistical significance", "setting": "[3]; as a whole, both the low dose group and the high dose group, p<0.05", "result": "a significant difference was observed"}, {"measurement": "melatonin concentrations in plasma, effect of ingestion (in words)", "setting": "[3]; oral, 100 or 200 mg/daily, 24 weeks, FIGS. 2a-2c, 3a-3c", "result": "increased"}]}]}
